Experimental data: patent publication US20220105051A1, “COMPOUNDS FOR INCREASING MHC-I EXPRESSION AND MODULATING HISTONE DEACETYLASE ACTIVITY” (Cava Healthcare Inc., priority 2019, published 2022)
“Also recorded” adds a separate entry of the source.

Assays:
Maximum tolerated dose = format: in vivo; conditions: for MTD at 14 days: female, C57BL/6, mouse, in vivo, ip, limited by solubility in 1% DMSO, read-out: highest maximum tolerated dose; for signs of toxicity (clinical signs, necropsy): i.p. 1.0, 3.5 and 5.2 mg/kg, 14 days, C57BL/6 mice
Procedure: British Columbia Cancer Agency (BCCA) completed the maximum tolerated dose study for compound P02-113, whereas P03-97-1 was assessed in-house following the same protocol. […]. The compounds were injected intraperitoneally (i.p.) at concentrations of 1.0 mg/kg (n=3), 3.5 mg/kg (n=3), or 5.2 mg/kg (n=3). These doses were based on the maximum solubility of the compounds that was determined using the known solubility of curcuphenol. Mice were assessed for clinical signs of toxicity for 14 days following injection. After 14 days the mice were euthanized and examined by necropsy, P02-113 was performed at BCCA, and P03-97-1 was performed by Animal Care Services located at the Center for Comparative Medicine on UBC Point Grey campus, Vancouver BC.
In vivo efficacy studies. Maximum tolerated dose (MTD). The maximum tolerated dose for the selected compounds, P02-113 and P03-97-1, were assessed in vivo. C57BI/6 mice were injected intraperitoneally (i.p.) with the test compounds at 3 different concentrations: 1.0 mg/kg (n=3), 3.5 mg/kg (n=3) and 5.2 mg/kg (n=3). Mice were then assessed for 14 days for clinical signs of toxicity and at the end point a necropsy was performed. […]

class I/II HDACs = test: HDAC-Glo I/II Assay in A9 cells; format: cell-based, murine; conditions: for HDAC activity at the lowest concentrations: 1 nM-100 nM; for class I/II HDAC activity: 1 nM-1 μM; for HDAC activity at higher concentrations: up to 1 uM
Procedure: Compounds P02-113 and P03-97-1 were analyzed for their effect on histone deacetylase activity in the A9 cell line, using the HDAC-Glo™ I/II Assay and Screening System (Promega). The linear range was established for the A9 cells in a black-walled, clear-bottomed 96 well plate (PerkinElmer). Cells were diluted to 10^5 cells/mL and serial diluted by two fold, to a final concentration of 98 cells/ml. All dilutions were plated in triplicates in a volume of 100 ul per well. Cells were left overnight at 37° C. for 24 hours before addition of HDAC class I/II reagent. Luminescence was read after 30 minute incubation with HDAC class I/II reagent. After determination of an optimal cell density of 30,000 cells/well, cells were plated in 96 well plate and left for 24 hours at 37° C. Media was used as a blank control, as well a positive control was included consisting of HeLa cells provided in the HDAC assay kit. […] HDAC class I/II reagent was then added and incubated for 30 minutes before luminescence was measured using the Infinite M200 (Tecan) and i-control software (Tecan).
HDAC assays. To assess the effect of the compounds on the relative activity of histone deacetylase (HDAC) class I and II enzymes in the A9 cell line, we used the HDAC-Glo™ I/II Assay and Screening System (Promega). The linear range was established for the A9 cells following the manufacturer's instructions. Thirty thousand cells per well were plated in clear-bottom 96-well plates (Perkin Elmer) and plates were incubated at 37° C. […] Cell culture media was used as a blank control and HeLa cells provided in the HDAC assay kit were used as a positive control. HDAC class I/II reagent was then added and incubated for 30 minutes before luminescence was measured using the Infinite M200 (Tecan) and i-control software (Tecan).

HDAC1 = biological target: T1, HDAC1 (Homo sapiens, UniProt Q13547); test: Individualized HDAC assay, HDAC1; format: biochemical; conditions: purified enzyme, 5 to 0.02 μM
T1 construct: purchased BPS Biosciences
Procedure: (§1) The activity of the curcuphenol analogues was assessed with purified HDAC enzymes from all classes I, II, and IV, as well as a select member of HDAC class III (SIRT1). HDACs 1-9 and SIRT1 were evaluated using HDAC Fluorogenic Assay Kits (BPS Biosciences). All assays were completed in black-sided clear-bottom 96 well plates (PerkinElmer), and all treatments were plated in triplicates. Treatment started at 5 μM and was two-fold diluted to a concentration 0.02 μM. The assays were measured using the Synergy HI hybrid reader (BioTek) and Gen5 software (BioTek), excitation was set to 360 nm and detection was measured at 450 nm with a gain of 100. […] Luminescence was read 30 minutes after HDAC-Glo™I/II reagent was added using the Synergy HI hybrid reader (BioTek) and Gen5 software (Bio-Tek). […] The relative mean of activity of the HDAC being measured was determined and all wells that received treatment were divided this average, to give a percentage of activity.
(§2) To evaluate the effect of the compounds on specific HDACs, their activity was assessed with purified HDAC enzymes from all classes I, II, and IV, as well as a select member of HDAC class III (SIRT1). HDACs 1-9 and SIRT1 were evaluated using HDAC Fluorogenic Assay Kits (BPS Biosciences) following the manufacturer's recommendations. […] The assays were measured using the Synergy HI hybrid reader (BioTek) and Gen5 software (Bio-Tek). […]

HDAC2 = biological target: T2, HDAC2 (Homo sapiens, UniProt Q92769); test: Individualized HDAC assay, HDAC2; format: biochemical; conditions: purified enzyme, 5 to 0.02 μM
T2 construct: purchased BPS Biosciences
Procedure: as §1, §2

HDAC4 = biological target: T3, HDAC4 (Homo sapiens, UniProt P56524); test: Individualized HDAC assay, HDAC4; format: biochemical; conditions: purified enzyme, 5 to 0.02 μM
T3 construct: purchased BPS Biosciences
Procedure: (§3) The activity of the curcuphenol analogues was assessed with purified HDAC enzymes from all classes I, II, and IV, as well as a select member of HDAC class III (SIRT1). HDACs 1-9 and SIRT1 were evaluated using HDAC Fluorogenic Assay Kits (BPS Biosciences). All assays were completed in black-sided clear-bottom 96 well plates (PerkinElmer), and all treatments were plated in triplicates. Treatment started at 5 μM and was two-fold diluted to a concentration 0.02 μM. The assays were measured using the Synergy HI hybrid reader (BioTek) and Gen5 software (BioTek), excitation was set to 360 nm and detection was measured at 450 nm with a gain of 100. Alternatively HDAC 10 and 11 (BPS Biosciences) were optimized for HDAC concentration using the HDAC-Glo™ I/II Assay and Screening System (Promega). Following optimization each HDAC was run following the Promega protocol in black-sided clear-bottomed 96 well plates in triplicates with same treatments listed above (PerkinElmer). Luminescence was read 30 minutes after HDAC-Glo™I/II reagent was added using the Synergy HI hybrid reader (BioTek) and Gen5 software (Bio-Tek). […] To calculate percent activity, the average of blank wells was subtracted from all treatment groups. The relative mean of activity of the HDAC being measured was determined and all wells that received treatment were divided this average, to give a percentage of activity.
(§4) To evaluate the effect of the compounds on specific HDACs, their activity was assessed with purified HDAC enzymes from all classes I, II, and IV, as well as a select member of HDAC class III (SIRT1). HDACs 1-9 and SIRT1 were evaluated using HDAC Fluorogenic Assay Kits (BPS Biosciences) following the manufacturer's recommendations. Compound treatment started at 5 μM and was two-fold diluted to a concentration 0.02 μM. […] The assays were measured using the Synergy HI hybrid reader (BioTek) and Gen5 software (Bio-Tek). […] To calculate the fold change in HDAC activity, the values from each treated well were divided by the relative mean of activity of the specific HDAC being measured.

HDAC11 = biological target: T4, HDAC11 (Homo sapiens, UniProt Q96DB2); test: Individualized HDAC assay, HDAC11 (HDAC-Glo); format: biochemical; conditions: purified enzyme, 5 to 0.02 μM
T4 construct: purchased BPS Biosciences
T4 sequence (Q96DB2 1-347): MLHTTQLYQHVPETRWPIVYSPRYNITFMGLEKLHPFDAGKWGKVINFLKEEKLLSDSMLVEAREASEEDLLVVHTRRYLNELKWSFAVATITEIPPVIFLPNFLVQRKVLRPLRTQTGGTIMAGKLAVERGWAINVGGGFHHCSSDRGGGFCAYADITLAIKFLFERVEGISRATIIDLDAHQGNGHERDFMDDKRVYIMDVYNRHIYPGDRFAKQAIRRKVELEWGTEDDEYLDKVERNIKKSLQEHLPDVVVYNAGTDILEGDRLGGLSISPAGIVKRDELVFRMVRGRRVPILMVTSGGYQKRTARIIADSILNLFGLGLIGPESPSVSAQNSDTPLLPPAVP
Procedure: as §3, §4

T2 sequence (Q92769 whole entry): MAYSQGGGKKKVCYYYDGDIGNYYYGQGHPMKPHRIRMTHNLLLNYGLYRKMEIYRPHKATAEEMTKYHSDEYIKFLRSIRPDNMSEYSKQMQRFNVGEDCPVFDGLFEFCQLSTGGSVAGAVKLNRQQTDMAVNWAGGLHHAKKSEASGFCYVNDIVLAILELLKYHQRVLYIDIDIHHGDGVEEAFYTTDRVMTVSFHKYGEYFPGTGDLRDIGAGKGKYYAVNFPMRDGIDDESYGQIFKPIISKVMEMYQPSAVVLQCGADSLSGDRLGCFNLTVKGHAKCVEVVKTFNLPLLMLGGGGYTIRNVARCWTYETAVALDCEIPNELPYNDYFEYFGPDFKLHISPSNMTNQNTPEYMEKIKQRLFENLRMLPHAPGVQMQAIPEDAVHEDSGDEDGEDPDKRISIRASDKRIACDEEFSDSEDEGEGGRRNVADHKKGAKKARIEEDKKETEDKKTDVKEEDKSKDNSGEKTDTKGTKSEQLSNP
T1 sequence (Q13547 whole entry): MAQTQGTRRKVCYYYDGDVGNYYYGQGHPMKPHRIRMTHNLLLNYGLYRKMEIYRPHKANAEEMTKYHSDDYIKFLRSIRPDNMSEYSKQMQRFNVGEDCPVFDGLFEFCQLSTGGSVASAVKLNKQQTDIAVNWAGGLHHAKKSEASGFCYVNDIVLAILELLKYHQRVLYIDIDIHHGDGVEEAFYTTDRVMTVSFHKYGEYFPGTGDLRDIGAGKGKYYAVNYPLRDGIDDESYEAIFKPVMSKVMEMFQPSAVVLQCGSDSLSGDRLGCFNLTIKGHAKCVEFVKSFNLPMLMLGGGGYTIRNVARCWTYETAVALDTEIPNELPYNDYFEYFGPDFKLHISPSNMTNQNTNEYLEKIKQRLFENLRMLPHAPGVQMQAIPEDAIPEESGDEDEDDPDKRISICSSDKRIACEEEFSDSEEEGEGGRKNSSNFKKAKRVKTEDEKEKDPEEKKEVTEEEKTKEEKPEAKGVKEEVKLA
T3 sequence (P56524 whole entry): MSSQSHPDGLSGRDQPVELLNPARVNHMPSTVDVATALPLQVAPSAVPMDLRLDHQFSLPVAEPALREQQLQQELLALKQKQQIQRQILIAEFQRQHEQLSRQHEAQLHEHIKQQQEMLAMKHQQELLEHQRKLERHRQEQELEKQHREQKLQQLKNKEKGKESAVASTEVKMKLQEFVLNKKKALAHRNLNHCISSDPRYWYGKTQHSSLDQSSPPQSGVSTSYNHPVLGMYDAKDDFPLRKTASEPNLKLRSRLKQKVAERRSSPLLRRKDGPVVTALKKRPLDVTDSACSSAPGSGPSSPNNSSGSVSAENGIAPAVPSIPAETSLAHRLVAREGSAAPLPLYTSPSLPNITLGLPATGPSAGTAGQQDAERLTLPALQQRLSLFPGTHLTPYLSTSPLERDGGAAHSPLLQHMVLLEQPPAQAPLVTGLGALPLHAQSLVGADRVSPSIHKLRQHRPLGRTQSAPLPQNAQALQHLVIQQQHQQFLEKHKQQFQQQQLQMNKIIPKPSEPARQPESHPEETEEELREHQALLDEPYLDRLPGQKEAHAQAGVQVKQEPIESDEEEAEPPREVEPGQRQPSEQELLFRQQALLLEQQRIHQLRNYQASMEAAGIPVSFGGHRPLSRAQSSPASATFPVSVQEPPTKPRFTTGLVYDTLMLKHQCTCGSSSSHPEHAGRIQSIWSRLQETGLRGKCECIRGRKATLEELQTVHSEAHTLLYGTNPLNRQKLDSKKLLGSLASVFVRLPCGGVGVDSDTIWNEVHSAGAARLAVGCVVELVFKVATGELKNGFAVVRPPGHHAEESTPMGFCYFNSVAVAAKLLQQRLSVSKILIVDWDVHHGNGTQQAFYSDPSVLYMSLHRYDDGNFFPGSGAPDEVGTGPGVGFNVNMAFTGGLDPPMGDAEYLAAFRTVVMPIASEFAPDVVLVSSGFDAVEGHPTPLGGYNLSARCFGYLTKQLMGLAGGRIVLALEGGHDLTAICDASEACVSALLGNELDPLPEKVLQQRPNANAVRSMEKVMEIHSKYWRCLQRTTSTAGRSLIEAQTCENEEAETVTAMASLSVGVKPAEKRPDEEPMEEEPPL

SMILES	MTD at 14 days (Maximum tolerated dose)	signs of toxicity (clinical signs, necropsy) (Maximum tolerated dose)	concentration of peak in HDAC activity (class I/II HDACs)	HDAC activity at the lowest concentrations (class I/II HDACs)	class I/II HDAC activity (class I/II HDACs)	HDAC activity at higher concentrations (class I/II HDACs)	HDAC1 activity (HDAC1)	HDAC2 activity (HDAC2)	HDAC4 activity (HDAC4)	HDAC11 activity (HDAC11)	HDAC4 activity (HDAC4; listed as PO-3-97-1)	HDAC11 activity (HDAC11; listed as PO-3-97-1)
CC(C)=CCCCc1ccc(C)cc1O [P02-113]	5.2 mg/kg	no signs of toxicity or abnormalities; also recorded: no adverse drug effects	around 180 nM	induction of HDAC activity	increase in class I/II HDAC activity	started to reduce it effect at higher concentrations; also recorded: started to reduce the effect at higher concentrations	no significant change in HDAC activity	no significant change in HDAC activity	no change in activity; also recorded: did not affect the activity; also recorded: unaffected	unaffected; also recorded: no effect was observed; also recorded: no change in activity		
COc1ccc(C(C)CCC=C(C)C)c(O)c1 (stereo not shown) [P03-97-1]	5.2 mg/kg	no signs of toxicity or abnormalities; also recorded: no adverse drug effects	around 180 nM	induction of HDAC activity	increase in class I/II HDAC activity	maintained peak levels of HDAC activity	no significant change in HDAC activity	no significant change in HDAC activity	no change in activity; also recorded: unaffected	unaffected; also recorded: no change in activity	did not affect the activity	no effect was observed
